One block for each compound: values may come before it.
Tests used:
[1] = test system: human colon cancer cell strain HT29; experiment: Cell growth inhibition test (MTT), HT29; type: cell-based; settings: HT-29, 72 h, HT29, 3 days culture, read-out: concentration exhibiting anti-cell effect (GI50)
Procedure: (§1) After a cultured cancer cell strain was treated with a test compound for a predetermined period, a cell growth inhibition test was performed by measuring the living cell count by the 3-(4,5-dimethylthiazol-2-yl)-2,5-diphenyltetrazoliumbromide (MTT) method.
(§2) Human endometrial cancer cell strain AN3CA, human ovary cancer cell strain IGROV1, and human colon cancer cell strain HT29 were seeded in a 96-well plate at 5000, 1000, and 5000 cells, respectively, per well. On the following day of seeding, a test compound having a predetermined concentration was added and the culture was continued at 37° C. in 5% CO2 for 3 days. On the final day of culture, an MTT reaction solution was added and the resulting mixture was reacted for 4 hours to form formazan by dehydrogenases contained in living cells. Subsequently, the culture broth was removed, DMSO was added to solubilize formazan, and the amount of produced formazan was determined by measuring absorbance at 540 nm using a microplate reader.
(§3) Since correlations of the amount of produced formazan and the living cell count had been confirmed, the cell growth rate was calculated by the following formula. Cell growth rate (T/C %) after addition of test compound=100×[(B−C)/(A−C)] A: Absorbance of well not containing test compound (final culture day) B: Absorbance of well containing test compound (final culture day) C: Absorbance of well immediately before addition of test compound (following day of cell seeding)
(§4) Furthermore, the cell growth rate at each concentration of serially diluted test compound solutions was obtained, and the concentration of the test compound resulting in a 50% growth rate was obtained as the GI50 value from two concentrations including 50% therebetween and the growth rates were selected.

PI3Kα = PI3Kα (Homo sapiens, UniProt P42336); experiment: PI3K kinase activity inhibition assay; type: biochemical; settings: Kinase-Glo Plus ATP detection, read-out: IC50 against PI3K
Chain of PI3Kα (P42336 whole entry, species assumed): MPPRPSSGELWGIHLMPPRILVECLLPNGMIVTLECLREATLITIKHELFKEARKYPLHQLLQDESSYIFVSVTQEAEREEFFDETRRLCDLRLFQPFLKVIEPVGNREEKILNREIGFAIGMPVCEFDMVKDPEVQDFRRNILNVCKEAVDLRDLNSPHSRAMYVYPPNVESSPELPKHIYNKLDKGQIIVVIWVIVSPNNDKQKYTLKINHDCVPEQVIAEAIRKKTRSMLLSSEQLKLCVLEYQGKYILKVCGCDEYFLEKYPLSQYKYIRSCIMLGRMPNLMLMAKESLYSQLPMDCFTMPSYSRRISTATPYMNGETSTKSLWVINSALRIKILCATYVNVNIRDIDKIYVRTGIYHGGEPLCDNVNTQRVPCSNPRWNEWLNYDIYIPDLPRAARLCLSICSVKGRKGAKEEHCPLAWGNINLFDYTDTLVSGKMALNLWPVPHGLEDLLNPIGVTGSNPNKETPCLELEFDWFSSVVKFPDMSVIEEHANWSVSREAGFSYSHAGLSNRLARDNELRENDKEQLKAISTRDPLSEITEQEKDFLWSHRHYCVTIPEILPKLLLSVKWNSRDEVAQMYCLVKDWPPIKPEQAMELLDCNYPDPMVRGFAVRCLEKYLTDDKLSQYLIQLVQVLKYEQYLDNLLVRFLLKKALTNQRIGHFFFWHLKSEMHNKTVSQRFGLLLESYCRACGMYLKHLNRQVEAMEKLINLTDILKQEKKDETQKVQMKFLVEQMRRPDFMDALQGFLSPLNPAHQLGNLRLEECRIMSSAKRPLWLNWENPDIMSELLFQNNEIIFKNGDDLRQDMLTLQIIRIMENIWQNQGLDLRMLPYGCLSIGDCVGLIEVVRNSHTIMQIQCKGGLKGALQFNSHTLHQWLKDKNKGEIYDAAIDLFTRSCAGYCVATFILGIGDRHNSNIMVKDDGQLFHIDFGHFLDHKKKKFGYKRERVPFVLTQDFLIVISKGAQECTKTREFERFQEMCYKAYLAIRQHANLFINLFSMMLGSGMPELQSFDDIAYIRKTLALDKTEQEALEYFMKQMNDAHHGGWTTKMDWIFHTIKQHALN
Chain of PI3Kα (P27986 whole entry partner, species assumed): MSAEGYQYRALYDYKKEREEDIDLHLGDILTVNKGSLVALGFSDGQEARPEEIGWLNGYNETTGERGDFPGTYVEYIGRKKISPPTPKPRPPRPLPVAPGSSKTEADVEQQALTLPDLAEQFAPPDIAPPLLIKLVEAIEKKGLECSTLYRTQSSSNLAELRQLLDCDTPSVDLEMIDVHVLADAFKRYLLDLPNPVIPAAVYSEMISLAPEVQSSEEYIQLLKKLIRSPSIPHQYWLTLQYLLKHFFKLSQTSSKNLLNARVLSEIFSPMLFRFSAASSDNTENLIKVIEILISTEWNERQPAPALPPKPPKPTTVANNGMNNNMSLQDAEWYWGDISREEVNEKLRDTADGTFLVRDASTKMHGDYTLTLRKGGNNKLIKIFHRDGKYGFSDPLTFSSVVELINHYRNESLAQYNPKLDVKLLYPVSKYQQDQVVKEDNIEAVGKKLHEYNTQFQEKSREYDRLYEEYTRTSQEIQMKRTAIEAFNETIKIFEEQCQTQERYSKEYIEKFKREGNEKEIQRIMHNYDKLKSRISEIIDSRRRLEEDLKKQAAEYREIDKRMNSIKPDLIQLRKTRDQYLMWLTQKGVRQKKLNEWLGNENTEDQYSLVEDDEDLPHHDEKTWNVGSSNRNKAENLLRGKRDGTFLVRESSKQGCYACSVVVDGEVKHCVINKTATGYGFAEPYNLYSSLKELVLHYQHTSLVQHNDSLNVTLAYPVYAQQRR
Procedure: PI3Kα kinase activity was determined in the presence and absence of a test compound. The test compound was dissolved in DMSO and diluted serially with an ATP solution (30 μm ATP, 50 mM HEPES, pH 7.4, 50 mM NaCl, 0.05% CHAPS, 10 mM MgCl2, and 5 mM dithiothreitol [DTT]). First, 7 μl each of the serially diluted test compound solutions was added to each well of a black 384-well plate. Subsequently, 7 μl of a phosphatidylinositol 4,5-bisphosphate (PIP2) solution (45 μm PIP2, 50 mM HEPES, pH 7.4, 50 mM NaCl, 0.05% CHAPS, 10 mM MgCl2, and 5 mM DTT) was added to each well of the 384-well plate. Finally, 7 μl of a solution containing PI3Kα (50 nM PI3Kα, 50 mM HEPES, pH 7.4, 50 mM NaCl, 0.05% CHAPS, 10 mM MgCl2, and 5 mM DTT) was added to each well of the 384-well plate to initiate a reaction. The mixture was reacted at room temperature for 2 hours and then 21 μl of the Kinase-Glo Plusreagent (Promega) was, added to each well of the 384-well plate to terminate the reaction. After the termination of the reaction, the solution was left standing for 15 minutes and then luminescence was measured with ARVO (PerkinElmer Co., Ltd.) to detect ATP remaining in the reaction solution.
The amount of ATP consumed in the reaction was obtained for each well and used as an indicator of PI3Kαkinase activity. The PI3Kα kinase activity in wells not containing the test compound was calculated by the following formula (1). Furthermore, the PI3Kα kinase activity in wells containing the test compound was calculated by the following formula (2). The PI3Kα inhibitory activity (%) of the test compound was calculated by the following formula (3). PI3Kα kinase activity in wells not containing the test compound=B−C (1) PI3Kα kinase activity in wells containing the test compound=B−P (2) PI3Kα inhibitory activity (%) of test compound=100−100×[(B−P)/(B−C)] (3) B: Measured value in wells not containing PI3Kα or the test compound C: Measured value in wells containing PI3Kα and not containing the test compound P: Measured value in wells containing PI3Kα and the test compound
Furthermore, an optimal curve was calculated with Graph Pad Prism 4 using concentrations of the serially diluted test compound solutions and PI3Kα inhibitory activity (%) at each concentration to obtain the concentration showing 50% inhibition as the IC50 value of PI3Kα inhibitory activity.

[2] = test system: human endometrial cancer cell strain AN3CA; experiment: Cell growth inhibition test (MTT), AN3CA; type: cell-based; settings: AN3-CA, 72 h, 3 days culture, read-out: concentration exhibiting anti-cell effect (GI50)
Procedure: as §1, §2, §3, §4

[3] = test system: human ovary cancer cell strain IGROV1; experiment: Cell growth inhibition test (MTT), IGROV1; type: cell-based; settings: IGROV-1, 72 h, IGROV1, 3 days culture, read-out: concentration exhibiting anti-cell effect (GI50)
Procedure: as §1, §2, §3, §4

[4] = biological target: T1, human mTOR (His-tagged mTOR (1362C)) (Homo sapiens, UniProt P42345); experiment: mTOR kinase activity inhibition assay; type: biochemical; settings: HTRF, read-out: IC50 against mTOR
T1 construct: the 1362 to 2549 amino acid portion on the C terminus side of human mTOR; His tag (N); made in house
T1 sequence (P42345 1362-2549): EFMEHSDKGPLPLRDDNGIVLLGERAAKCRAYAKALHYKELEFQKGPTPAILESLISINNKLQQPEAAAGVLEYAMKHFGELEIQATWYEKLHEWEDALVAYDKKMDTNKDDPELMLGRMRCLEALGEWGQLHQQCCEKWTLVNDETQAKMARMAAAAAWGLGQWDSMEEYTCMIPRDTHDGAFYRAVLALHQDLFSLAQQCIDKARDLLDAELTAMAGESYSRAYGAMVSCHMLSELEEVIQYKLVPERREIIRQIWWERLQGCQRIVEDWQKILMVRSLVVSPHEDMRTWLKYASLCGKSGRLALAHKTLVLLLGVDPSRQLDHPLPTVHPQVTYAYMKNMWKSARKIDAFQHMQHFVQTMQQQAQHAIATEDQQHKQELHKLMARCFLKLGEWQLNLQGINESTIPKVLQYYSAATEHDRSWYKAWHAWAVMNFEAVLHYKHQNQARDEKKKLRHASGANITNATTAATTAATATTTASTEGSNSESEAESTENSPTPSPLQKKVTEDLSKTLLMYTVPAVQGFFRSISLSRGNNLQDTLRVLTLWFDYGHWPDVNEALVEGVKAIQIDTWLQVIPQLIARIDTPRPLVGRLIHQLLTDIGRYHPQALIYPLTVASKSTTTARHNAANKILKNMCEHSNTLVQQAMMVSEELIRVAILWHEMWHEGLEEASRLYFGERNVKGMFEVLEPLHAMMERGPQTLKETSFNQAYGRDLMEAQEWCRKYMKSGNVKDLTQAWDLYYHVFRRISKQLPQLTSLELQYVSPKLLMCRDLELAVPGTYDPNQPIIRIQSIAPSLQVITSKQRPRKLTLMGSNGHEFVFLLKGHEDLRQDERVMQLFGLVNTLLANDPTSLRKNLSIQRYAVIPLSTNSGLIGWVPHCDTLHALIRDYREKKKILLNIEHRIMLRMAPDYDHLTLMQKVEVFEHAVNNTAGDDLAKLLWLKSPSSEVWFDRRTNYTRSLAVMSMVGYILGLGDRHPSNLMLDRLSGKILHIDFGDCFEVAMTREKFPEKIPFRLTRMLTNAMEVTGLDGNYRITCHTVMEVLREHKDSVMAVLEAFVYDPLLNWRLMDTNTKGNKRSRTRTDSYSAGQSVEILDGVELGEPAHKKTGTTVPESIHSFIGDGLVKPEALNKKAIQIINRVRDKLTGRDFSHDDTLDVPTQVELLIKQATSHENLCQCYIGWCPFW
Procedure: The mTOR kinase activity was determined in the presence and absence of a test compound. A substrate peptide is phosphorylated by mTOR kinase activity. A complex of streptavidin-XL665 and anti-phosphorylated S6K (Thr389) antibody-anti-mouse IgG-cryptate binds to this phosphorylated peptide. At this time, irradiation of excitation light induces transfer of fluorescence resonance energy from the excited cryptate to XL665, emitting fluorescence at 665 nm. Utilizing this principle, mTOR kinase activity was detected. When the mTOR inhibitor is present, phosphorylation of a substrate peptide is inhibited, and the biding of the above-mentioned complex to the substrate peptide is inhibited.
A His tag was introduced into the N terminus end of the 1362 to 2549 amino acid portion on the C terminus side of human mTOR, and a cell line was prepared, so that His-tagged mTOR should be constantly expressed in a HEK293 cell. A cell lysate was prepared from this HEK293 cell which constantly expressed His-tagged mTOR (1362C), and a crude product of His-tagged mTOR (1362C) was obtained by a usual method utilizing His tag.
Subsequently, an mTOR enzyme solution was prepared which contained the above-mentioned His-tagged mTOR (1362C) enzyme and 8 μg/ml biotinylated peptide (Biotin-Ahx-[…]-amide [Sigma]), as well as 50 mM HEPES (pH 7.5), 20 mM MnCl2, 1 mg/ml BSA, a suitable amount of protease inhibitor cocktail (Complete EDTA free, Roche Ltd.), 100 ng/ml calyculin A, and 4 μg/ml cantharidin as other components.
The test compound was dissolved in dimethyl sulfoxide (DMSO) and serially diluted with 20 μm ATP solution (50 mM HEPES (pH 7.5), 20 μM ATP) to obtain concentrations required for the assay. 5 μl of this compound solution was added to each well of a 384-well small volume white plate manufactured by Greiner Bio-One Co., Ltd.
5 μl of the mTOR enzyme solution was added to the above-mentioned well containing the test compound and the resulting mixture was left standing for 3 hours room temperature to proceed an enzymatic reaction.
The same procedure was performed using a solution obtained by dissolving DMSO in 20 μM ATP solution as a positive control and a solution obtained by dissolving DMSO in 50 mM HEPES buffer (pH 7.5) as a negative control.
After the enzymatic reaction, 5 μl each of an europium solution (a solution obtained by dissolving anti-mouse IgG-cryptate [SCETI Medical Labo K.K.] and anti-phosphorylation S6K [Thr389] antibody [Cell Signaling Technology Inc.] in 50 mM HEPES [pH 7.5], 100 mM EDTA, and 1.5 mg/ml BSA) and an XL665 solution (a solution obtained by dissolving Streptavidin-XL 665 [SCETI Medical Labo K.K.] in 50 mM HEPES [pH 7.5], 100 mM EDTA, 0.8 M KF, and 1.5 mg/ml BSA) were added in this order and mixed and the resulting mixture was left standing overnight at 4° C. On the following day, the mixture was returned to room temperature and then irradiated with 337-nm excitation light and fluorescence at 620 and 665 nm was measured with RUBYstar (BMG LABTECH JAPAN Ltd.).
mTOR inhibitory activity (%) was calculated using the ratio calculated from the measured values as an indicator of enzyme activity. Here, the ratio was calculated by the following formula (1). Ratio=10,000×fluorescence at 665 nm/fluorescence at 620 nm (1)
mTOR enzyme inhibitory activity (%) was calculated by the following formula (2). mTOR enzyme inhibitory activity (%)=100×[(P−S)/(P−N)] (2) P: Ratio in positive control well N: Ratio in negative control well S: Ratio in well containing the test compound
Furthermore, an optimal curve was created using the concentrations of the serially diluted test compound solutions and mTOR enzyme inhibitory activity (%) at each concentration to obtain the concentration showing 50% inhibition as the IC50 value of mTOR enzyme inhibitory activity.

Structure (SMILES): C[C@@H]1CN(c2nc3c(N4CCOCC4)nc(-c4cnc(N)nc4)nc3n2CC2CC2)C[C@H](C)N1S(C)(=O)=O [Example 38, 5-{9-(Cyclopropylmethyl)-8-[cis-3,5-dimethyl-4-(methylsulfonyl)piperazin-1-yl]-6-morpholin-4-yl-9H-purin-2-yl}pyrimidin-2-amine]
GI50 [1]: ≤ 5000 nM | IC50 (PI3Kα): 10 to 20 nM | GI50 [2]: ≤ 5000 nM | GI50 [3]: ≤ 5000 nM | IC50 [4]: 10 to 30 nM

Structure (SMILES): C[C@H]1CN(c2nc3c(N4CCOCC4)nc(-c4cnc(N)nc4)nc3n2CC(F)(F)F)CCN1C(=O)CO [Example 125, 2-{(2S)-4-[2-(2-Aminopyrimidin-5-yl)-6-morpholin-4-yl-9-(2,2,2-trifluoroethyl)-9H-purin-8-yl]-2-methylpiperazin-1-yl}-2-oxoethanol]
GI50 [1]: ≤ 5000 nM | IC50 (PI3Kα): < 10 nM | GI50 [2]: ≤ 5000 nM | GI50 [3]: ≤ 5000 nM | IC50 [4]: < 10 nM

Structure (SMILES): CNCC(=O)N1CCN(c2nc3c(N4CCOCC4)nc(-c4cnc(N)nc4)nc3n2CC2CC2)CC1 [Example 41, 5-[9-(Cyclopropylmethyl)-8-{4-[(methylamino)acetyl]piperazin-1-yl}-6-morpholin-4-yl-9H-purin-2-yl]pyrimidin-2-amine]
GI50 [1]: ≤ 5000 nM | IC50 (PI3Kα): < 10 nM | GI50 [2]: ≤ 5000 nM | GI50 [3]: ≤ 5000 nM | IC50 [4]: 30 to 100 nM

Structure (SMILES): CS(=O)(=O)N1CCN(c2nc3c(N4CCOCC4)nc(-c4cnc(N)nc4)nc3n2[C@H]2CCN(S(C)(=O)=O)C2)CC1 [Example 27, 5-{8-[4-(Methylsulfonyl)piperazin-1-yl]-9-[(3S)-1-(methylsulfonyl)pyrrolidin-3-yl]-6-morpholin-4-yl-9H-purin-2-yl}pyrimidin-2-amine]
GI50 [1]: ≤ 5000 nM | IC50 (PI3Kα): 20 to 50 nM | GI50 [2]: ≤ 5000 nM | GI50 [3]: ≤ 5000 nM | IC50 [4]: 30 to 100 nM

Structure (SMILES): CNc1ncc(-c2nc(N3CCOCC3)c3nc(N4C[C@@H](C)N[C@@H](C)C4)n(CC4CCOC4)c3n2)cn1 (stereo partly drawn) [Example 18, 5-[8-(cis-3,5-Dimethylpiperazin-1-yl)-6-morpholin-4-yl-9-(tetrahydrofuran-3-ylmethyl)-9H-purin-2-yl]-N-methylpyrimidin-2-amine]
GI50 [1]: ≤ 5000 nM | IC50 (PI3Kα): 50 to 100 nM | GI50 [2]: ≤ 5000 nM | GI50 [3]: ≤ 5000 nM | IC50 [4]: 100 to 500 nM

The remaining lines, values ahead:

GI50 [1]: ≤ 5000 nM | IC50 (PI3Kα): < 10 nM | GI50 [2]: ≤ 5000 nM | GI50 [3]: ≤ 5000 nM | IC50 [4]: 10 to 30 nM
Structure (SMILES): C[C@@H]1CN(c2nc3c(N4CCOCC4)nc(-c4cnc(N)nc4)nc3n2CC2CC2)CCN1 [Example 94, 5-{9-(Cyclopropylmethyl)-8-[(3R)-3-methylpiperazin-1-yl]-6-morpholin-4-yl-9H-purin-2-yl}pyrimidin-2-amine]

GI50 [1]: ≤ 5000 nM | IC50 (PI3Kα): 10 to 20 nM | GI50 [2]: ≤ 5000 nM | GI50 [3]: ≤ 5000 nM | IC50 [4]: 30 to 100 nM
Structure (SMILES): Nc1ncc(-c2nc(N3CCOCC3)c3nc(N4CCNCC4)n(CC4CC4)c3n2)cn1 [Example 19, 5-[9-(Cyclopropylmethyl)-6-morpholin-4-yl-8-piperazin-1-yl-9H-purin-2-yl]pyrimidin-2-amine]

GI50 [1]: ≤ 5000 nM | IC50 (PI3Kα): 10 to 20 nM | GI50 [2]: ≤ 5000 nM | GI50 [3]: ≤ 5000 nM | IC50 [4]: 30 to 100 nM
Structure (SMILES): Nc1ncc(-c2nc(N3CCOCC3)c3nc(NCCO)n(CC4CC4)c3n2)cn1 [Example 30, 2-{[2-(2-Aminopyrimidin-5-yl)-9-(cyclopropylmethyl)-6-morpholin-4-yl-9H-purin-8-yl]amino}ethanol]

GI50 [1]: ≤ 5000 nM | IC50 (PI3Kα): 10 to 20 nM | GI50 [2]: ≤ 5000 nM | GI50 [3]: ≤ 5000 nM | IC50 [4]: 100 to 500 nM
Structure (SMILES): CNc1ncc(-c2nc(N3CCOCC3)c3nc(N4CCN(S(C)(=O)=O)CC4)n(CC4CC4)c3n2)c(C)n1 [Example 43]

GI50 [1]: ≤ 5000 nM | IC50 (PI3Kα): 10 to 20 nM | GI50 [2]: ≤ 5000 nM | GI50 [3]: ≤ 5000 nM | IC50 [4]: ≥ 500 nM
Structure (SMILES): Cc1nc(N)ncc1-c1nc(N2CCOCC2)c2nc(NCCN(C)C)n(CC3CC3)c2n1 [Example 21, N′-[2-(2-Amino-4-methylpyrimidin-5-yl)-9-(cyclopropylmethyl)-6-morpholin-4-yl-9H-purin-8-yl]-N,N-dimethylethane-1,2-diamine]

From patent US8309546B2, “Morpholinopurine derivatives” (Daiichi Sankyo Company, Limited, priority 2008, dated 2012)
